Like-named read-outs stand apart in the source and are kept apart here.
Tests used:
[1] = target: T1, recombinant rhinovirus 3C protease, serotype 14 (Human rhinovirus 14, UniProt P03303); assay: Inhibition of rhinovirus 3C protease (FRET assay), serotype 14; assay type: biochemical
T1 construct: Recombinant rhinovirus 3C proteases; made in house
Protocol: (§1) Stock solutions (50 mM, in DMSO) of various compounds were prepared; dilutions were in the same solvent. Recombinant rhinovirus 3C proteases (see Birch et al., “Purification of recombinant human rhinovirus 14 3C protease expressed in Escherichia coli,” Protein Expr. Pur. (1995), vol. 6(5), 609-618) from serotypes 14, 16, and 2 were prepared by the following standard chromatographic procedures: (1) ion exchange using Q Sepharose Fast Flow from Pharmacia; (2) affinity chromatography using Affi-Gel Blue from Biorad; and (3) sizing using Sephadex G-100 from Pharmacia. Each assay sample contained 2% DMSO, 50 mM tris pH 7.6, 1 mM EDTA, a test compound at the indicated concentration, approximately 1 μM substrate, and 50-100 nM protease. The kobs/I values were obtained from reactions initiated by addition of enzyme rather than substrate. RVP activity was measured in the fluorescence resonance energy transfer assay. The substrate was (N-terminal) DABCYL-([…]-EDANS. In the uncleaved peptide, the EDANS fluorescence was quenched by the proximal DABCYL moiety. When the peptide was cleaved, the quenching was relieved, and activity was measured as an increase in fluorescence signal. The tabulated data in the column designated kobs/[I] were measured from progress curves in enzyme start experiments.

in vitro = settings: human
HRV-14 = assay: Antirhinoviral H1-HeLa cell culture assay (XTT), HRV-14; assay type: cell-based, human rhinovirus
[2] = target: T2, recombinant rhinovirus 3C protease, serotype 16 (Human rhinovirus 16, UniProt Q82122); assay: Inhibition of rhinovirus 3C protease (FRET assay), serotype 16; assay type: biochemical; settings: HRV-16 3C protease
T2 construct: Recombinant rhinovirus 3C proteases; made in house
Protocol: as §1

[3] = target: T3, recombinant rhinovirus 3C protease, serotype 2 (Human rhinovirus 2, UniProt P04936); assay: Inhibition of rhinovirus 3C protease (FRET assay), serotype 2; assay type: biochemical; settings: HRV-2 3C protease
T3 construct: Recombinant rhinovirus 3C proteases; made in house
Protocol: as §1

[4] = target: T4, rhinovirus 3C protease, HRV-89 (Human rhinovirus A serotype 89, UniProt P07210); assay: Inhibition of rhinovirus 3C protease (FRET assay), serotype 89; assay type: biochemical, human rhinovirus 89; settings: HRV-89 3C protease
T4 construct: Recombinant rhinovirus 3C proteases

H1-HeLa cells = assay: Cytotoxicity in mock-infected H1-HeLa cells (antirhinoviral assay, XTT); settings: HRV-14
[5] = Rhinovirus B, HRV14, HRV-14, H1-HeLa cells

T3 sequence (P04936 1508-1690): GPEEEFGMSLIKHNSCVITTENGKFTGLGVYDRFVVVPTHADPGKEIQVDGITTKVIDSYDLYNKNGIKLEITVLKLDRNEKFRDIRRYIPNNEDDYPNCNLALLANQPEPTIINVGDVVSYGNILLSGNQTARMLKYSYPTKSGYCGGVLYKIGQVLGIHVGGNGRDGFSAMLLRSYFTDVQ
T1 sequence (P03303 1538-1719): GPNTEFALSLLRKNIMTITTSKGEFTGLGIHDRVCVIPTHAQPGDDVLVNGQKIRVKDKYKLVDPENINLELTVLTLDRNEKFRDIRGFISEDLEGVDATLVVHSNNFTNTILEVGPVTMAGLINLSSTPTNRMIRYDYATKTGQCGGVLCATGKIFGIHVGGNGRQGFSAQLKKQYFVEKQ
T2 sequence (Q82122 1511-1693): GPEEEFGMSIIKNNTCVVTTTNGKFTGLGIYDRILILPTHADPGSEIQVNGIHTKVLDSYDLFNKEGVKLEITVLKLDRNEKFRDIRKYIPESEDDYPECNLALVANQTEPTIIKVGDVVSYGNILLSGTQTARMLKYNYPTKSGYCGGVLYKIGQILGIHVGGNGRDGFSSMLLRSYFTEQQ
T4 sequence (P07210 1522-1704): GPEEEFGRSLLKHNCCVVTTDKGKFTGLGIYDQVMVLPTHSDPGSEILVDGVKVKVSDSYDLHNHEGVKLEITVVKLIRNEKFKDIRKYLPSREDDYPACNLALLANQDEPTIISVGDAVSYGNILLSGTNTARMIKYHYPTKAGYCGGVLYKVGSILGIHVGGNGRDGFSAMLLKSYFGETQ

| Compound | Ki [1] | CC50 at 2 days (in vitro; mock-infected H1-HeLa cells) | EC50 (HRV-14; [5]) | other results |
| --- | --- | --- | --- | --- |
| CSCC(=O)[C@H](CCC(=O)NC(c1ccccc1)(c1ccccc1)c1ccccc1)NC(=O)[C@H](Cc1ccccc1)NC(=O)[C@H](CC(C)C)NC(=O)OCc1ccccc1 [Compound 1, Cbz-L-Leu-L-Phe-L-(Tr-Gln)-CH2SCH3] | 9 µM | – | – | – |
| CSCC(=O)[C@H](CCC(N)=O)NC(=O)[C@H](Cc1ccccc1)NC(=O)[C@H](CC(C)C)NC(=O)OCc1ccccc1 [Compound 2, Cbz-L-Leu-L-Phe-L-(Gln)-CH2SCH3] | 50 µM | – | – | – |
| CC(=O)NC[C@H](NC(=O)[C@H](Cc1ccccc1)NC(=O)[C@H](CC(C)C)NC(=O)OCc1ccccc1)C(=O)COC(=O)c1c(C)cc(C)cc1C [Compound 3, Cbz-L-Leu-L-Phe-L-(N-Ac-amino-Ala)-CH2OC(O)-(2,4,6-trimethylphenyl)] | – | 25 µM | > 25 µM | kobs/[I] ([1]; HRV-14 3C protease, progress curves in enzyme start experiments): slow |
| CC(=O)NC[C@H](NC(=O)[C@H](Cc1ccccc1)NC(=O)[C@H](CC(C)C)NC(=O)OCc1ccccc1)C(C)=O [Compound 5, Cbz-L-Leu-L-Phe-L-(N-Ac-amino-Ala)-CH3] | 138 µM | – | – | – |
| CC(C)C[C@H](NC(=O)OCc1ccccc1)C(=O)N[C@@H](Cc1ccccc1)C(=O)N[C@@H](CNC(=O)OC(C)(C)C)C(=O)c1nc2ccccc2s1 [Compound 6, Cbz-L-Leu-L-Phe-L-(N-Boc-amino-Ala)-2-Benzthiazole] | 4.8 µM | – | – | – |
| CC(C)C[C@H](NC(=O)OCc1ccccc1)C(=O)N[C@@H](Cc1ccccc1)C(=O)N[C@@H](CNC(=O)OC(C)(C)C)C(=O)c1ccccn1 [Compound 7, Cbz-L-Leu-L-Phe-L-(N-Boc-amino-Ala)-2-Pyridine] | 71 µM | – | – | – |
| CC(=O)NC[C@H](NC(=O)[C@H](Cc1ccccc1)NC(=O)[C@H](CC(C)C)NC(=O)OCc1ccccc1)C(=O)c1ccccn1 [Compound 8, Cbz-L-Leu-L-Phe-L-(N-Ac-amino-Ala)-2-Pyridine] | 80 µM | – | – | – |
| CNC(=O)C(=O)[C@H](CNC(C)=O)NC(=O)[C@H](Cc1ccccc1)NC(=O)[C@H](CC(C)C)NC(=O)OCc1ccccc1 [Compound 10, Cbz-L-Leu-L-Phe-L-(N-Ac-amino-Ala)-C(O)NHCH3] | 20 µM | > 320 µM | 251 µM | – |
| CC(=O)NC[C@H](NC(=O)[C@H](Cc1ccccc1)NC(=O)[C@H](CC(C)C)NC(=O)OCc1ccccc1)C(=O)C(=O)N1CCCCC1 [Compound 11, Cbz-L-Leu-L-Phe-L-(N-Ac-amino-Ala)-C(O)-Piperidine] | > 110 µM | – | – | – |
| CC(=O)NC[C@@H](NC(=O)[C@H](Cc1ccccc1)NC(=O)[C@H](CC(C)C)NC(=O)OCc1ccccc1)C(=O)C(=O)N1CCCCC1 [Compound 12, Cbz-L-Leu-L-Phe-D-(N-Ac-amino-Ala)-C(O)-Piperidine] | 10.7 µM | – | 39 µM | – |
| CC(=O)NC[C@H](NC(=O)[C@H](Cc1ccccc1)NC(=O)[C@H](CC(C)C)NC(=O)OCc1ccccc1)C(=O)c1nccs1 [Compound 13, Cbz-L-Leu-L-Phe-L-(N-Ac-amino-Ala)-2-Thiazole] | 24 µM | 56 µM | > 56 µM | Ki [2]: 4 µM; Ki [3]: 13.3 µM |
| C=CC(=O)[C@H](CNC(C)=O)NC(=O)[C@H](Cc1ccccc1)NC(=O)[C@H](CC(C)C)NC(=O)OCc1ccccc1 [Compound 15, Cbz-L-Leu-L-Phe-L-(N-Ac-amino-Ala)-CH=CH2] | 0.098 µM | > 100 µM | > 100 µM | – |
| C#CC(=O)[C@H](CNC(C)=O)NC(=O)[C@H](Cc1ccccc1)NC(=O)[C@H](CNC(C)=O)NC(=O)OCc1ccccc1 [Compound 16] | 0.035 µM | > 100 µM | > 100 µM | – |
| COCC#CC(=O)[C@H](CNC(C)=O)NC(=O)[C@H](Cc1ccccc1)NC(=O)[C@H](CC(C)C)NC(=O)OCc1ccccc1 [Compound 17, Cbz-L-Leu-L-Phe-L-(N-Ac-amino-AIa)-C≡CCH2OCH3] | 0.075 µM | > 100 µM | > 100 µM | – |
| CC(=O)NC[C@H](NC(=O)[C@H](Cc1ccccc1)NC(=O)[C@H](CC(C)C)NC(=O)OCc1ccccc1)C(=O)COCCc1ccccc1 [Compound 18, Cbz-L-Leu-L-Phe-L-(N-Ac-amino-Ala)-CH2OCH2CH2Ph] | 9.1 µM | 20 µM | > 20 µM | Ki [2]: 6.7 µM; Ki [3]: 11 µM; Ki [4]: 14 µM |
| COCC(=O)[C@H](CNC(C)=O)NC(=O)[C@H](Cc1ccccc1)NC(=O)[C@H](CC(C)C)NC(=O)OCc1ccccc1 [Compound 19, Cbz-L-Leu-L-Phe-L-(N-Ac-amino-Ala)-CH2OCH3] | 27 µM | – | – | Ki [2]: 27 µM; Ki [3]: 12.9 µM; Ki [4]: 20.6 µM |
| CC(C)C[C@H](NC(=O)OCc1ccccc1)C(=O)N[C@@H](Cc1ccccc1)C(=O)N[C@@H](CCC(N)=O)C(=O)c1nc2ccccc2s1 [Compound 20, Cbz-L-Leu-L-Phe-L-Gln-2-Benzthiazole] | 3.5 µM | > 100 µM | 17.4 µM | – |
| CC(C)C[C@H](NC(=O)OCc1ccccc1)C(=O)N[C@@H](Cc1ccccc1)C(=O)N[C@@H](C[C@@H]1CCNC1=O)C(=O)c1ccccn1 [Compound 23, Cbz-L-Leu-L-Phe-L-[(S)-Pyrrol-Ala]-2-Pyridine] | 0.17 µM | 200 µM | 4 µM | – |
| CC(=O)[C@H](C[C@@H]1CCNC1=O)NC(=O)[C@H](Cc1ccccc1)NC(=O)[C@H](CC(C)C)NC(=O)OCc1ccccc1 [Compound 24, Cbz-L-Leu-L-Phe-L-[(S)-Pyrrol-Ala]-CH3] | 0.65 µM | > 10 µM | > 10 µM | – |
| CC(C)C[C@H](NC(=O)OCc1ccccc1)C(=O)N[C@@H](Cc1ccccc1)C(=O)N[C@@H](C[C@@H]1CCNC1=O)C(=O)c1cc2ccccc2s1 [Compound 25, Cbz-L-Leu-L-Phe-L-[(S)-Pyrrol-Ala]-2-Benzothiophene] | 4.7 µM | > 10 µM | > 10 µM | – |
| CC(C)C[C@H](NC(=O)OCc1ccccc1)C(=O)N[C@@H](Cc1ccccc1)C(=O)N[C@@H](C[C@@H]1CCNC1=O)C(=O)c1ccccc1 [Compound 26, Cbz-L-Leu-L-Phe-L-[(S)-Pyrrol-Ala]-Ph] | 3.22 µM | > 10 µM | > 10 µM | – |
| CC(C)C[C@H](NC(=O)OCc1ccccc1)C(=O)N[C@@H](Cc1ccccc1)C(=O)N[C@@H](CCC(N)=O)C(=O)COC(=O)c1c(Cl)cccc1Cl [Compound 27, Cbz-L-Leu-L-Phe-L-Gln-CH2OC(O)-(2,6-dichlorophenyl)] | – | – | – | kinact/KI ([1]; pH 7.6, HRV-14 3C protease, progress curves in enzyme start experiments, read-out: kobs/[I]): 2500 M⁻¹ s⁻¹ |
| CCOC(=O)c1ccc(OCCC2CCN(c3ccc(C)nn3)CC2)cc1 [Pirodavir, reference compound] | – | – | 0.03 µM | CC50 at 2 days (in vitro): > 10 µM |
| Cc1cc(CCCOc2c(C)cc(-c3noc(C(F)(F)F)n3)cc2C)on1 [Pleconaril, reference compound] | – | > 10 µM | 0.01 µM | – |
| Cc1cc(CCCCCCCOc2ccc(C3=NCCO3)cc2)on1 [WIN51711, reference compound] | – | – | – | CC50 (H1-HeLa cells): > 60 µM; EC50 (HRV-14; HRV-14, H1-HeLa cells): 0.78 µM |
| Cc1cc(CCCCCCCOc2ccc(C3=N[C@@H](C)CO3)cc2)on1 [WIN52084, reference compound] | – | – | – | CC50 (H1-HeLa cells): > 10 µM; EC50 (HRV-14; HRV-14, H1-HeLa cells): 0.07 µM |
| Cc1cc(CCCCCOc2c(Cl)cc(C3=NCCO3)cc2Cl)on1 [WIN54954, reference compound] | – | – | – | CC50 (H1-HeLa cells): > 63 µM; EC50 (HRV-14; HRV-14, H1-HeLa cells): 2.13 µM |
| Cbz-L-Leu-L-Phe-L-(N-Boc-amino-Ala)-CH3 [Compound 4] | – | – | – | Ki ([1]; HRV-14 3C protease, read-out: Ki): 16.3 µM |

Reference: patent publication US6534530B1, “Antipicornaviral compounds and compositions, their pharmaceutical uses, and materials for their synthesis” (Agouron Pharmaceuticals, Inc., priority 1999, dated 2003)
